Experimental data published in paper PMC9501280, “Anti-Inflammatory Activity of Soluble Epoxide Hydrolase Inhibitors Based on Selenoureas Bearing an Adamantane Moiety” (International Journal of Molecular Sciences, 2022).
Converted amounts (≈) assume the structure as drawn. Like-named read-outs stand apart in the source and are kept apart here.

Legend:
[1] = Solubility in sodium phosphate buffer; type: physicochemical; details: aqueous buffer, kinetic from dmso stock; sodium phosphate buffer (pH 7.4, 0.1 M) containing 1% DMSO
Description: To our knowledge, no systematic studies of selenoureas as sEH inhibitors have been performed previously. The potency of the compounds was determined against the human recombinant sEH and their solubility assessed in phosphate-buffered saline (Table 1).

[2] = Ferric-reducing antioxidant power (FRAP); details: Trolox equivalents (Trolox = 1)
Source text: (§1) To confirm the SET mechanism, the reducing activity of the compounds was studied using tests CUPRAC (Cupric-Reducing Antioxidant Capacity) and FRAP (Ferric ion-Reducing Antioxidant Power). Unlike the DPPH and ABTS tests, these methods are based only on the ability of substances to act as electron donors. It should be noted that the CUPRAC test has several advantages: the manifestation of activity at a pH close to the physiological value and a favorable redox potential; the method is applicable to both lipophilic and hydrophilic antioxidants. The antioxidant potential of the studied derivatives 4a–g and 5a is estimated in equivalents of the water-soluble analog of vitamin E—Trolox (TEAC—Trolox Equivalent Antioxidant Capacity), the activity of which is taken as the unit ([…] = 1, […] = 1).
The sample solution (0.1 mL) was mixed with 0.1 mL phosphate buffer (0.2 M, pH 6.6) and 0.1 mL potassium ferricyanide (1%). For each test compound, different concentrations of EtOH were used (5, 10, 25, 50, 100, 200 and 250 μM). The resulting mixture was incubated at 50 °C for 20 min. After the incubation period, 0.1 mL trichloroacetic acid (10%), 0.5 mL deionized water and 0.1 mL ferric chloride (0.1%) were added to the mixture. The sample absorbance was read at 700 nm with a 96-cell microplate spectrophotometer. The reduction of Fe (III) to Fe (II) could be expressed as % inhibition or the equivalent of a standard compound (e.g., Trolox).

human recombinant sEH = molecular target: T1, human recombinant sEH (Homo sapiens, UniProt P34913); test: Human sEH inhibition, kinetic fluorescent assay; type: biochemical
T1 sequence (P34913 1-555): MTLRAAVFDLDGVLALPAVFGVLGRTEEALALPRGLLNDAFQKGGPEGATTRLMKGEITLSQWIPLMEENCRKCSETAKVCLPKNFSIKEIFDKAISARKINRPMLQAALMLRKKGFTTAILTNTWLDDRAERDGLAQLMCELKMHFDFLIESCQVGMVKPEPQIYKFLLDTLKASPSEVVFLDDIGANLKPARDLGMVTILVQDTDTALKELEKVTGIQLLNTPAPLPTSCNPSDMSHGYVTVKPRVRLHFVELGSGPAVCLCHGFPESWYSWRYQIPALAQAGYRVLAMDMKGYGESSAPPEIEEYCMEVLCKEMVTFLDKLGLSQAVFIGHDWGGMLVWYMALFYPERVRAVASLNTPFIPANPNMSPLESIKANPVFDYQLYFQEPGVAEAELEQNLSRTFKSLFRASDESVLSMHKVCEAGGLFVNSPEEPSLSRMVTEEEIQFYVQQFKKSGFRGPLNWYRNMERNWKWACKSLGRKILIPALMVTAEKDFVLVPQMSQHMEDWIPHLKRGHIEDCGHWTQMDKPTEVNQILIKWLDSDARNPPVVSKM

[3] = Cupric reducing antioxidant capacity (CUPRAC); details: Trolox equivalents (Trolox = 1); compound 0.5 mM, 30 min
Source text: as §1
Neocuproine (2,9-dimethyl-1,10-phenanthroline) and Trolox were used with no further purification. The method proposed by Apak et al. was used with slight modifications. For these measurements, 0.05 mL of CuCl2 solution (0.01 M), 0.05 mL of MeOH neocuproine solution (7.5 mM) and 0.05 mL of ammonium acetate buffer solution (1 M) were added to a test tube, followed by mixing with the 0.05 mL tested compounds (0.5 mM). The mixtures were kept at room temperature for 30 min. The absorbance was measured at 450 nm against a reagent blank. The results were presented in Trolox equivalents (Trolox equivalent antioxidant capacity, TEAC) obtained using absorbance data, and the linear calibration curve was plotted as the absorbance vs. Trolox concentration.

[4] = Superoxide radical anion formation by xanthine oxidase (NBT assay); type: biochemical; details: sample solution 5 mM in DMSO
Description: The superoxide anion radical scavenging activity of derivatives 4a–g and 5a was evaluated by the ability to inhibit the reduction of nitro blue tetrazolium (NBT) to blue formazan by trapping O2^•− generated by xanthine oxidase in the oxidation of hypoxanthine to uric acid.
EDTA, xanthine, bovine serum albumin, nitro blue tetrazolium and xanthine oxidase (25 MU) were purchased from Sigma Aldrich (Burlington, MA, USA). The superoxide anions were generated enzymatically by the xanthine oxidase system. The reaction mixture consisted of 2.70 mL of 40 mM sodium carbonate buffer containing 0.1 mM EDTA (pH 10.0), 0.06 mL of 10 mM xanthine, 0.03 mL of 0.5% bovine serum albumin, 0.03 mL of 2.5 mM nitro blue tetrazolium and 0.06 mL of the sample solution in DMSO at the concentration of 5 mM. An amount of 0.12 mL of xanthine oxidase (0.04 units) was added to the mixture at 25 °C, and the absorbance at 560 nm (by formation of blue formazan) was measured by a microplate spectrophotometer for 60 s. A control experiment was carried out by replacing the sample solution with the same amount of DMSO.
Inhibition I (%) = [(1 − Ai/A0) × 100%], where Ai is the absorbance in the presence of the testing compound, and A0 is the absorbance of the blank solution. All experiments were performed three times.

[5] = DPPH radical scavenging activity; details: compound solution 0.2 mM in MeOH mixed 1:1 with 0.2 mM DPPH, 40 min, 20 °C
Description: The free radical scavenging activity was evaluated using the stable radical 2,2-diphenyl-1-picrylhydrazyl (DPPH), according to the method described by Brand-Williams with a slight modification. Solutions of the compounds in MeOH were studied at a concentration of 0.2 mM. The stock DPPH solution contained 0.2 mM of radical in MeOH. An amount of 0.1 mL of the test compound solution was added to 0.1 mL of DPPH solution (0.2 mM) in each cell so that the initial DPPH concentration in the cells was 0.1 mM. The microplate was placed in a spectrophotometer, and the decrease in the absorbance values of the DPPH solution for 40 min at 20 °C was measured at λmax = 517 nm. The results were expressed as scavenging activity, calculated as follows: scavenging activity, % = [(A0 − A1)/A0] × 100, where A0 is the optical density of the control solution DPPH, and A1 is the optical density of the reaction mixture solution.

[6] = kinetic fluorescent assay, means of three separate experiments, read-out: Human sEH IC50

Compound	solubility [1]	TEACFRAP [2]	IC50 (human recombinant sEH; [6])	TEACCUPRAC [3]	% Inhibition NBT [4]	% Inhibition DPPH• [5]	increase in the inhibitory activity (human recombinant sEH; 4b versus 4a, one methylene group between adamantyl and selenourea)	IC50 (human recombinant sEH; human sEH, read-out: IC50 (sEH))
[Se]=C(Nc1ccccc1)NC12CC3CC(CC(C3)C1)C2 [4a, 1-(Adamantan-1-yl)-3-phenylselenourea]	55 ± 10 µM (≈ 18.3 µg/mL)	0.93 ± 0.06	0.436 µM	1.07 ± 0.11	29.17 ± 0.01%	44.89 ± 0.04%		
[Se]=C(Nc1ccccc1)Nc1ccc(C23CC4CC(CC(C4)C2)C3)cc1 [4e, 1-[4-(Adamantan-1-yl)phenyl]-3-phenylselenourea]	30 ± 10 µM (≈ 12.3 µg/mL)	1.13 ± 0.14	0.0554 µM	0.99 ± 0.05	4.75 ± 0.50%	66.15 ± 0.56%		
[Se]=C(NCC12CC3CC(CC(C3)C1)C2)Nc1ccccc1 [4b, 1-[(Adamantan-1-yl)methyl]-3-phenylselenourea]	110 ± 20 µM (≈ 38.2 µg/mL)	1.14 ± 0.03	0.131 µM	3.04 ± 0.11	35.20 ± 1.46%	70.75 ± 1.10%	3.3 fold	
[Se]=C(NCCC12CC3CC(CC(C3)C1)C2)Nc1ccccc1 [4d, 1-[2-(Adamantan-1-yl)ethyl]-3-phenylselenourea]	70 ± 10 µM (≈ 25.3 µg/mL)	1.32 ± 0.01	0.0491 µM	3.29 ± 0.12	6.85 ± 1.18%	70.90 ± 2.13%		
[Se]=C(NCc1ccccc1)NC12CC3CC(CC(C3)C1)C2 [5a, 1-(Adamantan-1-yl)-3-benzylselenourea]	125 ± 20 µM (≈ 43.4 µg/mL)	1.19 ± 0.04	0.211 µM	1.62 ± 0.4	56.52 ± 0.05%	59.45 ± 0.09%		
[Se]=C(Nc1ccccc1)NC1C2CC3CC(C2)CC1C3 (centres unmarked) [4g, 1-(Adamantan-2-yl)-3-phenylselenourea]	80 ± 20 µM (≈ 26.7 µg/mL)	1.39 ± 0.03	0.104 µM	2.48 ± 0.16	14.26 ± 1.48%	71.82 ± 1.10%		
CC12CC3CC(C)(C1)CC(NC(=[Se])Nc1ccccc1)(C3)C2 [4f, 1-(3,5-Dimethyladamantan-1-yl)-3-phenylselenourea]	100 ± 10 µM (≈ 36.1 µg/mL)	0.57 ± 0.04	0.256 µM	0.22± 0.01	10.93 ± 1.05%	58.35 ± 0.92%		
CC(NC(=[Se])Nc1ccccc1)C12CC3CC(CC(C3)C1)C2 (centres unmarked) [4c, 1-[1-(Adamantan-1-yl)ethyl]-3-phenylselenourea]	50 ± 5 µM (≈ 18.1 µg/mL)	1.81 ± 0.08	1.21 µM	3.39 ± 0.11	6.52 ± 0.50%	68.81 ± 1.69%		1.2 µM
